Converted amounts (≈) assume the structure as drawn. Like-named read-outs stand apart in the source and are kept apart here.
Tests used:
KP13368 = assay: MIC, microdilution broth method; type: cell-based
M6 = assay: MIC, microdilution broth method; type: cell-based
AYE = assay: MIC, microdilution broth method; type: cell-based, Acinetobacter baumannii
Ab17978 = assay: MIC, microdilution broth method; type: cell-based
PA01 = assay: MIC, microdilution broth method; type: cell-based, Pseudomonas aeruginosa
PA13437 = assay: MIC, microdilution broth method; type: cell-based; conditions: for MIC: PA13437
EC12923 = assay: MIC, microdilution broth method; type: cell-based
MSSA9144 = assay: MIC, microdilution broth method; type: cell-based, Staphylococcus aureus
EMRSA15 = assay: MIC, microdilution broth method; type: cell-based, Staphylococcus aureus
EMRSA16 = assay: MIC, microdilution broth method; type: cell-based, Staphylococcus aureus
VSE775 = assay: MIC, microdilution broth method; type: cell-based, Enterococcus faecalis; design: MIC, VSE775: unit not given beside the values
VRE12201 = assay: MIC, microdilution broth method; type: cell-based, Enterococcus faecalis
VRE12204 = assay: MIC, microdilution broth method; type: cell-based, Enterococcus faecium; conditions: in µg/mL; for MIC: VRE12204
[1] = test system: multidrug resistant strains; assay: Reserpine growth assay in several multidrug resistant strains (FIG. 27); type: cell-based; conditions: compared to ML-83-009 or levofloxacin
Method: Reserpine was added at a final concentration of 10 μg/mL (made up at 40 μg/mL in TSB, 50 μL per well). The bacteria were added at an OD of 0.01 in TSB (100 μL/well). The plate was a normal clear plate as used for MICs. OD was read every 30 minutes for 9 hours (the literature states 7 hours, but this is strain-dependent).

[2] = test system: extended panel of MDR strains with known multiple target mutations; type: cell-based
SE1 = type: cell-based, S. epidermidis
SA1 = assay: MIC, extended Gram-positive panel; type: cell-based, S. aureus
SA2 = assay: MIC, extended Gram-positive panel; type: cell-based, S. aureus
SA3 = type: cell-based, S. aureus
SH1 = assay: MIC, extended Gram-positive panel; type: cell-based, S. haemolyticus
SA4 = assay: MIC, extended Gram-positive panel; type: cell-based, S. aureus
SA5 = type: cell-based, S. aureus
SA6 = assay: MIC, extended Gram-positive panel; type: cell-based, S. aureus
EF1 = assay: MIC, extended Gram-positive panel; type: cell-based, E.faecalis
EF2 = assay: MIC, extended Gram-positive panel; type: cell-based, E.faecium
SA7 = assay: MIC, extended Gram-positive panel; type: cell-based, S. aureus
SA8 = assay: MIC, extended Gram-positive panel; type: cell-based, S. aureus
SA9 = type: cell-based, S. aureus
SA10 = assay: MIC, extended Gram-positive panel; type: cell-based, S. aureus
MSSA 9144 strain = assay: Reserpine (growth) assay for efflux; type: cell-based, Staphylococcus aureus; conditions: multidrug-resistant MSSA 9144 strain; compound 0.25×MIC, reserpine 10 μg/mL
EMRSA 15 strain = assay: Reserpine (growth) assay for efflux; type: cell-based, Staphylococcus aureus; conditions: multidrug-resistant EMRSA 15 strain; compound 0.25×MIC, reserpine 10 μg/mL
[3] = ESKAPE panel, Gram-negative, in µg/mL
[4] = ESKAPE panel, Gram-positive, in µg/mL
[5] = KP13368, Normal (no PMBN), in µg/mL
[6] = Ab17978, Normal (no PMBN), in µg/mL
[7] = PA01, Normal (no PMBN), in µg/mL

In the case of C[C@H]1COc2c(N3CC[C@@H](Nc4ncccn4)C3)c(F)cc3c(=O)c(C(=O)O)cn1c23 [KSN-L22], the MIC, KP13368 (KP13368; ESKAPE panel, Gram-negative) is reported as 4 mg/L (≈ 9.4 µM), the MIC (KP13368; Klebsiella pneumoniae (KP13368), Gram-Negative, read-out: MIC) is reported as 4 mg/L (≈ 9.4 µM) and the “MIC, M6” value (M6; [3]) is reported as 1. The MIC (M6; Klebsiella pneumoniae (M6), Gram-Negative, read-out: MIC) was 1 mg/L (≈ 2.35 µM), the MIC (AYE; Acinetobacter baumannii (AYE), Gram-Negative, read-out: MIC) was 4 mg/L (≈ 9.4 µM) and the “MIC, AYE” value (AYE; [3]) was 4. For the same compound, the MIC (Ab17978; Acinetobacter baumannii) was 0.125 mg/L (≈ 0.294 µM), the “MIC, Ab17978” value (Ab17978; [3]) was 0.125 and the “MIC, PA01” value (PA01; [3]) was 4. The MIC (PA01; Pseudomonas aeruginosa (PA01), Gram-Negative, read-out: MIC) was 4 mg/L (≈ 9.4 µM), the MIC, PA13437 (PA13437; ESKAPE panel, Gram-negative) was greater than 32 mg/L and the “MIC, EC12923” value (EC12923; [3]) was 0.5. The MIC (EC12923; Escherichia coli (EC12923), Gram-Negative, read-out: MIC) was 0.5 mg/L (≈ 1.18 µM), the “MIC, MSSA9144” value (MSSA9144; [4]) was no more than 0.03 and the MIC (MSSA9144; Staphylococcus aureus (MSSA9144), Gram-Positive, read-out: MIC) was no more than 0.03 mg/L. The “MIC, EMRSA15” value (EMRSA15; EMRSA15 (Table 16, role of the terminal pyrimidine ring), in µg/mL) was 0.5-1, the “MIC, EMRSA15” value (EMRSA15; [4]) was 0.5 and the MIC (EMRSA15; Staphylococcus aureus, Staphylococcus aureus (EMRSA15), Gram-Positive (Table 14), read-out: MIC) was 0.5 mg/L (≈ 1.18 µM). The MIC (EMRSA15; Staphylococcus aureus, Staphylococcus aureus (EMRSA15), Table 12, read-out: MIC) was 0.5 to 1 mg/L (≈ 1.18 to 2.35 µM), the “MIC, EMRSA16” value (EMRSA16; EMRSA16 (Table 16, role of the terminal pyrimidine ring), in µg/mL) was 1 and the “MIC, EMRSA16” value (EMRSA16; [4]) was 1. It also gave an MIC (EMRSA16; S. aureus EMRSA16, gyrA, 84:S => L, grlA, 80:S => F (Table 11)) of 1, an MIC (EMRSA16; Staphylococcus aureus (EMRSA16), Gram-Positive (Table 14)) of 1 µg/mL (≈ 2.35 µM) and an MIC (EMRSA16; Staphylococcus aureus (EMRSA16), Table 12, read-out: MIC) of 1 µg/mL (≈ 2.35 µM). For the same compound, the “MIC, VSE775” value (VSE775; ESKAPE panel, Gram-positive) was 0.06, the MIC (VSE775; Enterococcus faecalis, Enterococcus (VRE775), Gram-Positive, read-out: MIC) was 0.06 mg/L (≈ 0.141 µM) and the “MIC, VRE12201” value (VRE12201; [4]) was 0.06. The MIC (VRE12201; Enterococcus faecalis, Enterococcus (VRE12201), Gram-Positive, read-out: MIC) was 0.06 mg/L (≈ 0.141 µM), the “MIC, VRE12204” value (VRE12204; ESKAPE panel, Gram-positive) was 1 and the “efflux from the bacteria (reserpine growth assay)” value [1] was “reduced efflux”. It also gave an MIC ([2]; E. faecalis EF 602) of 0.25 mg/L (≈ 0.588 µM), an MIC ([2]; E. faecium EF 205) of 0.12 mg/L (≈ 0.282 µM) and an MIC ([2]; S. aureus SA 046, gyrA, 84:S => L, grlA, 80:S => F) of 1 mg/L (≈ 2.35 µM). For the same compound, the MIC ([2]; S. aureus SA 105, gyrA, 84:S => L, grlA, 80:S => F) was 1 mg/L (≈ 2.35 µM), the MIC ([2]; S. aureus SA 215, gyrA, 84:S => L, grlA, 80:S => F) was 1 mg/L (≈ 2.35 µM) and the MIC ([2]; S. aureus SA 275, gyrA, 84:S => V, grlA, 80:S => F) was 1 mg/L (≈ 2.35 µM). For the same compound, the MIC ([2]; S. aureus SA 318, gyrA, 84:S => L, grlA, 80:S => F) was 1 mg/L (≈ 2.35 µM) and the MIC ([2]; S. aureus SA 388, gyrA, 84:S => L, grlA, 80:S => F) was 1 mg/L (≈ 2.35 µM).
CCn1cc(C(=O)O)c(=O)c2cc(F)c(N3CCN(Cc4cccc5ccccc45)CC3)cc21 [ML-77-021] was tested, and the MIC (KP13368; KP13368, +PMBN, in µg/mL) was 4-8, the MIC (KP13368; [5]) was greater than 32 and the MIC (M6; M6, +PMBN, in µg/mL) was 1-4. It also gave an MIC (M6; M6, Normal (no PMBN), in µg/mL) of 32, an MIC (AYE; AYE, +PMBN, in µg/mL) greater than 32 and an MIC (AYE; AYE, Normal (no PMBN), in µg/mL) greater than 32. The MIC (Ab17978; Ab17978, +PMBN, in µg/mL) was 0.5, the MIC (Ab17978; [6]) was 32 and the MIC (PA01; PA01, +PMBN, in µg/mL) was 0.06-0.25. For the same compound, the MIC (PA01; [7]) was greater than 32, the MIC (PA13437; +PMBN) was greater than 32 mg/L and the MIC (PA13437; Normal (no PMBN)) was greater than 32 mg/L. The MIC (MSSA9144; MSSA9144, in µg/mL) was 1, the MIC (EMRSA15; EMRSA15, in µg/mL) was 2 and the MIC (EMRSA16; EMRSA16, in µg/mL) was 2. The MIC (VSE775; VSE775, in µg/mL) was 2, the MIC (VRE12201; VRE12201, in µg/mL) was 4 and the MIC (VRE12204) was 2. The Fold decrease (SE1) was 1-4 fold, the MIC (SE1; in µg/mL) was 1 and the MIC (SA1; S. aureus SA1, gyrA, 84:S => L, grlA, 80:S => F) was 4 mg/L (≈ 8.7 µM). The Fold decrease (SA1; SA1, MIC of parent (CIP or NOR) versus ARB-linked derivative) was no less than 32 fold, the MIC (SA2; S. aureus SA2) was 1 mg/L (≈ 2.18 µM) and the Fold decrease (SA2; SA2, MIC of parent (CIP or NOR) versus ARB-linked derivative) was 8-64 fold. The Fold decrease (SA3) was 32 fold, the MIC (SA3) was 2 mg/L (≈ 4.35 µM) and the MIC (SH1; S. haemolyticus SH1) was 4 mg/L (≈ 8.7 µM). For the same compound, the Fold decrease (SH1; SH1, MIC of parent (CIP or NOR) versus ARB-linked derivative) was 32 fold, the MIC (SA4; S. aureus SA4, gyrA, 84:S => L, grlA, 80:S => F) was 2 mg/L (≈ 4.35 µM) and the Fold decrease (SA4; SA4, MIC of parent (CIP or NOR) versus ARB-linked derivative) was 32 fold. The Fold decrease (SA5) was no less than 64 fold, the MIC (SA5) was 2 mg/L (≈ 4.35 µM) and the MIC (SA6; S. aureus SA6, gyrA, 84:S => V, grlA, 80:S => F) was 2 mg/L (≈ 4.35 µM). For the same compound, the Fold decrease (SA6; SA6, MIC of parent (CIP or NOR) versus ARB-linked derivative) was no less than 64 fold, the MIC (EF1; E.faecalis EF1) was 4 mg/L (≈ 8.7 µM) and the Fold decrease (EF1; EF1, MIC of parent (CIP or NOR) versus ARB-linked derivative) was no less than 32 fold. The MIC (EF2; E.faecium EF2, in µg/mL) was 2-4, the Fold decrease (EF2; EF2, MIC of parent (CIP or NOR) versus ARB-linked derivative) was no less than 32 fold and the MIC (SA7; S. aureus SA7, gyrA, 84:S => L, grlA, 80:S => F) was 2 mg/L (≈ 4.35 µM). For the same compound, the Fold decrease (SA7; SA7, MIC of parent (CIP or NOR) versus ARB-linked derivative) was no less than 64 fold, the MIC (SA8; S. aureus SA8, gyrA, 84:S => L, grlA, 80:S => F) was 2 mg/L (≈ 4.35 µM) and the Fold decrease (SA8; SA8, MIC of parent (CIP or NOR) versus ARB-linked derivative) was 64 fold. It also gave an MIC (SA9; S. aureus SA9, gyrA, 84:S => L, grlA, 80:S => F) of 2 mg/L (≈ 4.35 µM), a Fold decrease (SA9; SA9, MIC of parent (CIP or NOR) versus ARB-linked derivative) of no less than 64 fold and an MIC (SA10; S. aureus SA10, gyrA, 84:S => L, grlA, 80:S => F) of 2 mg/L (≈ 4.35 µM). The Fold decrease (SA10; SA10, MIC of parent (CIP or NOR) versus ARB-linked derivative) was 64 fold, the “efflux by the strain (reserpine assay)” value (MSSA 9144 strain) was “not effluxed” and the “efflux by the strain (reserpine assay)” value (EMRSA 15 strain) was “not effluxed”.
Compound CCn1cc(C(=O)O)c(=O)c2cc(F)c(N3CCNCC3)cc21 [Norfloxacin, norfloxacin, reference compound] has an MIC (KP13368; [5]) of 4, an MIC (M6; M6, Normal (no PMBN), in µg/mL) of 0.25 and an MIC (Ab17978; [6]) of 4. For the same compound, the MIC (PA01; [7]) was 2, the MIC (MSSA9144; MSSA9144, in µg/mL) was 2 and the MIC (VSE775; VSE775, in µg/mL) was 8. For the same compound, the MIC (VRE12201; VRE12201, in µg/mL) was 4, the MIC (VRE12204) was 4 and the “efflux by the strain (reserpine assay)” value (MSSA 9144 strain) was “effluxed”. The “efflux by the strain (reserpine assay)” value (EMRSA 15 strain) was “effluxed”.

From patent publication US11746116B2, “Antibiotic resistance breakers” (KING'S COLLEGE LONDON, priority 2017, dated 2023)
